Assay results: US20220072165A1, “RADIODRUG FOR DIAGNOSTIC/THERAPEUTIC USE IN NUCLEAR MEDICINE AND RADIO-GUIDED MEDICINE” (UNIVERSITÀ DEGLI STUDI DI ROMA "LA SAPIENZA", priority 2019, published 2022)

Legend:
[1] = molecular target: T1, norepinephrine transporter (NET) (Homo sapiens, UniProt P23975); test: competition with ^3H-NE for uptake by SK-N-SH cells; format: cell-based; settings: for inhibition of the uptake/internalization of ^3H-NE (competition with ^3H-NE): 1 hour, tested up to 100 μM; for substrate of NET compared with MIBG: competition with ^3H-NE
T1 construct: human neuroblastoma cells SK-N-SH, which are known to express the transporter NET in large quantity; host or cells: SK-N-SH human neuroblastoma cells
T1 sequence (P23975 whole entry): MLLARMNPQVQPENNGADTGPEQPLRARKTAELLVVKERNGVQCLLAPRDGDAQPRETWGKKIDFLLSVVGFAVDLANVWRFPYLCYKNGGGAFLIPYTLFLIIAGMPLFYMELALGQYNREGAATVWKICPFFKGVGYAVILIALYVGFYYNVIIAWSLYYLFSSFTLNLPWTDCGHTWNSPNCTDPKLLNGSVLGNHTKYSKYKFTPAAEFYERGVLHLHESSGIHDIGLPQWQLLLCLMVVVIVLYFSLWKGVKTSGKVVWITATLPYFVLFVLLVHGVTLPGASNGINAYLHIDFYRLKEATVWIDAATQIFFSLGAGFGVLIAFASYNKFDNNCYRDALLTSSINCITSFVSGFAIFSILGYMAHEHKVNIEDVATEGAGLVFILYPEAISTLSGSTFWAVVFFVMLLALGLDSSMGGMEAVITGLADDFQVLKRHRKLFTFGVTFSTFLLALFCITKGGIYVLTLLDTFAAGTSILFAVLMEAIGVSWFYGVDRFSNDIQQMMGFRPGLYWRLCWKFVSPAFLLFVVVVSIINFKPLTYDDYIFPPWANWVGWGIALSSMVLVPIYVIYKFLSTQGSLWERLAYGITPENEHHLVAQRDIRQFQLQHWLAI
Description: The ability of the ^89Y-DOTA-BG chelate (1a, MC4324) (non-radioactive analogue of the compound of Formula II, 1 or MC4324) to act as substrate of NET has been evaluated in competition experiments with the tritiated endogenous substrate ^3H-NE for the uptake by the human neuroblastoma cells SK-N-SH, which are known to express the transporter NET in large quantity. […] This provides the ability to prepare radio-marked versions of the chelate of Formula II (or MC4324) with an even low specific activity, because the absence of competition for NET between the chelate (MC4324) and the free binder 9 (MC4325) doesn't compromise the bonding ability to NET of the chelate (compound of Formula II, MC4324) also in the presence of an excess of free binder 9 (MC4325).
FIG. 3 depicts the competition of the ^89Y-DOTA-BG chelate (1a, MC4324) (non-radioactive analogue of the compound of Formula II, 1 or MC4324) and of free binder 9 (MC4325) with ^3H-NE (50 nM, 1 hour incubation, T=37° C.) for the uptake by the SK-N-SH cells. ^1H-NE a 20 μM and MIBG @ 2 μM have been used as positive controls.
^3H-NE has been purchased from Perkin Elmer. To measure the initial cell uptake speeds of ^3H-NE, the cells have been grown for 16 hours in the presence of serum only, then incubated with binder medium (EMEM containing 0.2% BSA and 20 mM Hepes, pH 7.5) for 10 minutes by heating in a water bath at 37° C. The bond has been initiated by adding 0.5 ml per well of 50 nM ^3H-NE to the binder medium for […], the plates have then been placed on ice and washed three times with frozen PBS. Thus, the cell monolayers have been dried and lysed with […]. The cpm (“counts” per minute) have been determined separately in the different wells in triple for each time. By cpm is meant “counts” or “hits” per minute, i.e. the nuclear disintegrations that occur in one minute. These disintegrations come from inside the cells after these have been, following the order below: 1) incubated with ^3H-NE, 2) washed with PBS to eliminate ^3H-NE remained outside the cells, 3) lysed for better detecting the radioactivity due to the internalized ^3H-NE only.
The background bond has been determined in parallel in a fourth well containing a 400 times molar excess of non-marked ^1H-NE (“cold”). For the competition study, the cells have been plated as above, and thus incubated for 1 hour with 50 nM ^3H-NE in binder medium in the absence and presence of the ^89Y-DOTA-BG chelate (compound of Formula II, 1a or MC4324) (non-radioactive analogue of the compound of Formula II, 1 or MC4324) and free binder 9 (MC4325) at different concentrations. The radioactivity has been determined separately in the wells in triple for each concentration value. The uptake of ^3H-NE has been expressed as total radioactivity percentage normalized for mg of protein.
The ability of the “cold” chelates of Formula III (10a′, MC4801) and IV (10b′, MC4803) to act as substrates of NET has been evaluated in competition experiments with the tritiated endogenous substrate ^3H-NE for the uptake by the human neuroblastoma cells SK-N-SH, which are known to express the transporter NET in large quantity. […] Therefore also in this case it is possible to prepare radio-marked versions of the chelates of Formula III (10a, MC4801) and IV (10b, MC4803) with low specific activity, as the absence of competition for NET between the chelates 10a,b (MC4801 and MC4803) and the respective free binders 13a,b (MC4802 and MC4804) doesn't compromise the bonding ability to NET of the chelates [compounds of Formula III (10a, MC4801) and IV (10b, MC4803)] also in the presence of an excess of free binders 13a,b (MC4802 and MC4804). […]

[2] = tested on: human neuroblastoma line SK-N-SH; test: cytotoxic effects in SK-N-SH cells; format: cell-based; settings: up to the maximum concentration tested (100 μM)
[3] = stability in human serum (release of ^90Y^3+ to serum proteins); format: in vitro ADME; settings: 32 MBq per 16 ml, T=37° C., 14 days
Experimental: The stability in serum of the […] chelate of Formula II (1 or MC4324) has been evaluated by measuring the release of the metal cation ^90Y^3+ from the chelate to the serum proteins during 14 days in which it has been kept in physiological conditions. Briefly, the ^90Y-DOTA-BG chelate of Formula II (1 or MC4324) has been incubated with human serum (32 MBq for 16 ml of serum) at T=37° C. At regular time intervals serum aliquots have been collected and, by using centrifuge filter tubes (Amicon® Ultra-4 3K, Merck Millipore) and by centrifuging at 5500 g, the serum proteins have been separated from the non-protein fraction of serum and the radioactivity of both fractions has been measured with a liquid scintillation β counter (scintillation liquid used is Perkin Elmer ULTIMA GOLD).
The stability in serum of the chelates of Formula III (10a, MC4801) and IV (10b, MC4803) has been evaluated by measuring the release of the metal cation ^90Y^3+ from the chelates to the serum proteins during 14 days in which they have been kept in physiological conditions. Briefly, the chelates of Formula III (10a, MC4801) and IV (10b, MC4803) have been incubated with human serum (32 MBq per 16 ml of serum) at T=37° C. At regular time intervals serum aliquots have been collected and, by using centrifuge filter tubes (Amicon® Ultra-4 3K, Merck Millipore) and by centrifuging at 5500 g, the serum proteins have been separated from the non-protein fraction of serum and the radioactivity of both fractions has been measured with a liquid scintillation β counter (scintillation liquid used is Perkin Elmer ULTIMA GOLD).

[4] = chemical stability in physiological conditions (PBS buffer, 37° C., analytical HPLC); format: physicochemical; settings: for Area 1 (chromatographic peak of compound 1a) / Area (1 + 2) (peaks of compound 1a and impurity 2): PBS, 37° C.
Experimental: The stability of the chelate ^89Y-DOTA-BG (1a, MC4324) (non-radioactive analogue of the compound of Formula II, 1 or MC4324) in physiological conditions has been evaluated by analysis with analytical HPLC (Shimadzu Nexera chromatograph equipped with a SPD-M20A PDA detector; Hypersil ODS GOLD 250×4.6 mm column; eluent: MeOH/H2O 5:95 v/v+0.02% TFA, flow: 1.0 ml/min; UV detection 214 nm) repeated at regular time intervals after having solubilized it in PBS buffer (c=0.9 mg/ml) and kept at T=37° C.
FIG. 2 depicts the HPLC plot relative to the compound ^89Y-DOTA-BG (1a) solubilized in PBS buffer (c=0.9 mg/ml) and at T=37° C. time t=0 min (A), t=21 hours (B) and t=5 days (C). […]

N=C(N)NCc1cccc(I)c1 [MIBG, reference compound]
competition of positive control with ^3H-NE for the internalization ([1]; non-marked MIBG at 2 μM): compete with ^3H-NE for the internalization

N=C(N)NCc1cccc(C(=O)NCCCNC(=O)CN2CCN(CC(=O)[O-])CCN(CC(=O)[O-])CCN(CC(=O)[O-])CC2)c1.[89Y+3] [10a′]
cytotoxic effects [2]: without dose-dependent cytotoxic effects
cytotoxic effects ([2]; listed as Formula III): without cytotoxic effects
inhibition of the uptake/internalization of ^3H-NE (competition with ^3H-NE) ([1]; 50 nM ^3H-NE, 37° C.): dose-dependent inhibition
substrate of NET compared with MIBG [1]: substrate of NET analogously to MIBG, even though with lower power
substrate of NET compared with MIBG ([1]; listed as Formula III): substrates of NET analogously to MIBG

CC(CCNC(=O)CN1CCN(CC(=O)O)CCN(CC(=O)O)CCN(CC(=O)O)CC1)NC(=O)c1cccc(CNC(=N)N)c1 (stereo not drawn) [13b, 2,2′,2″-(10-(2-((3-(3-(guanidinomethyl)benzamido)butyl)amino)-2-oxoethyl)-1,4,7,10-tetraazacyclododecane-1,4,7-triyl) Triacetic Acid]
inhibition of the uptake/internalization of ^3H-NE (competition with ^3H-NE) ([1]; 50 nM ^3H-NE, 37° C.): completely unable to compete

N=C(N)NCc1cccc(C(=O)NCCNC(=O)CN2CCN(CC(=O)[O-])CCN(CC(=O)[O-])CCN(CC(=O)[O-])CC2)c1.[90Y+3] [compound 1]
loss of radioactivity (^90Y^3+) in favor of the protein fraction of serum [3]: no measurable loss of radioactivity

N=C(N)NCc1cccc(C(=O)NCCCNC(=O)CN2CCN(CC(=O)[O-])CCN(CC(=O)[O-])CCN(CC(=O)[O-])CC2)c1.[90Y+3] [10a]
loss of radioactivity (^90Y^3+) in favor of the protein fraction of serum [3]: no measurable loss of radioactivity

NC[C@H](O)c1ccc(O)c(O)c1 [^1H-NE, reference compound]
competition of positive control with ^3H-NE for the internalization ([1]; non-marked ^1H-NE at 20 μM): compete with ^3H-NE for the internalization

N=C(N)NCc1cccc(C(=O)NCCNC(=O)CN2CCN(CC(=O)[O-])CCN(CC(=O)[O-])CCN(CC(=O)[O-])CC2)c1.[89Y+3] [1a]
cytotoxic effects [2]: without dose-dependent cytotoxic effects
chemical purity after 5 days ([4]; PBS buffer c=0.9 mg/ml, T=37° C., HPLC UV 214 nm, 5 days): higher than 99.5%
Area 1 (chromatographic peak of compound 1a) ([4]; time 0 min): 34.78
Area (1 + 2) (peaks of compound 1a and impurity 2) ([4]; time 0 min): 35.13
Area 1 (chromatographic peak of compound 1a) ([4]; time 30 min): 35.09
Area (1 + 2) (peaks of compound 1a and impurity 2) ([4]; time 30 min): 35.29
Area 1 (chromatographic peak of compound 1a) ([4]; time 1 hour 30 min): 35.07
Area (1 + 2) (peaks of compound 1a and impurity 2) ([4]; time 1 hour 30 min): 35.30
Area 1 (chromatographic peak of compound 1a) ([4]; time 5 hours): 35.13
Area (1 + 2) (peaks of compound 1a and impurity 2) ([4]; time 5 hours): 35.40
Area 1 (chromatographic peak of compound 1a) ([4]; time 21 hours): 37.15
Area (1 + 2) (peaks of compound 1a and impurity 2) ([4]; time 21 hours): 37.45
Area 1 (chromatographic peak of compound 1a) ([4]; time 5 days): 38.34
Area (1 + 2) (peaks of compound 1a and impurity 2) ([4]; time 5 days): 38.65
IC50 ([1]; 50 nM ^3H-NE, 1 hour incubation, 37° C., read-out: inhibition of the ^3H-NE uptake IC50): ~10 µM
inhibition of the uptake/internalization of ^3H-NE (competition with ^3H-NE) ([1]; 50 nM ^3H-NE, 37° C.): dose-dependent inhibition
substrate of NET compared with MIBG [1]: substrate of NET analogously to MIBG, even though with lower power

N=C(N)NCc1cccc(C(=O)NCCCCNC(=O)CN2CCN(CC(=O)[O-])CCN(CC(=O)[O-])CCN(CC(=O)[O-])CC2)c1.[90Y+3] [10b]
loss of radioactivity (^90Y^3+) in favor of the protein fraction of serum [3]: no measurable loss of radioactivity

N=C(N)NCc1cccc(C(=O)NCCCNC(=O)CN2CCN(CC(=O)O)CCN(CC(=O)O)CCN(CC(=O)O)CC2)c1 [13a, 2,2′,2″-(10-(2-((3-(3-(guanidinomethyl)benzamido)propyl)amino)-2-oxoethyl)-1,4,7,10-tetraazacyclododecane-1,4,7-triyl) triacetic acid]
inhibition of the uptake/internalization of ^3H-NE (competition with ^3H-NE) ([1]; 50 nM ^3H-NE, 37° C.): completely unable to compete

N=C(N)NCc1cccc(C(=O)NCCNC(=O)CN2CCN(CC(=O)O)CCN(CC(=O)O)CCN(CC(=O)O)CC2)c1 [compound 9, 2,2′,2″-(10-(2-((2-(3-(guanidinomethyl)benzamido)ethyl)amino)-2-oxoethyl)-1,4,7,10-tetraazacyclododecane-1,4,7-triyl) triacetic acid]
inhibition of the uptake/internalization of ^3H-NE (competition with ^3H-NE) ([1]; 50 nM ^3H-NE, 37° C.): completely unable to compete
